According to patent publication EP3783012A1, “AN ANTIMICROBIAL PEPTIDE” (priority 2019, dated 2021):
Where no end group is shown, it is not given here.

Tests used:
[1] = system: human THP-1 macrophages; assay: Ex-vivo viability assay (MTT); assay type: cell-based
Procedure: Ex-vivo viability assay: Cellular viability was assessed in human THP-1 macrophages by a colorimetric assay that makes use of thiazolyl blue tetrazolium bromide (MTT, Sigma). Cells were grown in Roswell Park Memorial Institute (RPMI) medium supplemented with 10% of heat inactivated fetal bovine serum (FBS), 1% L-glutamine and 1% penicillin-streptomycin. At 90% confluence, cells were centrifuged and diluted to a 1:5 ratio with complete RPMI. The monocytes were differentiated into macrophages using […] phorbol 12-myristate 13-acetate (PMA) before being seeded in a 96 well plate at a density of 1.0 x 10^4 cells/well and incubated in the presence of 5% CO2 for 72 hours at 37°C. Following this, cells were treated with increasing concentrations (0.05, 0.5, 5, 50, 500 µg/mL) of Pep_V2QV5D, magainin 2 or colistin before re-incubation for a further 24 hours. Post-incubation, 10 µL of MTT was added to each well at a final concentration of 500 µg/mL and incubated at 5% CO2 for 2 hours at 37°C. Formazan crystals were dissolved by the addition of 100 µL 100% DMSO and gentle shaking for 5 minutes at room temperature. The absorbance was measured at 570nm in a microplate spectrophotometer (Synergy H1, Biotek). Maximum toxicity was determined by cells incubated with 100% DMSO. Cell viability was calculated as a per cent of a control treated with PBNS. Three technical replicates were performed each day on three independent days.

[2] = system: colRAB; assay: Synergy study, Fractional inhibitory concentration (FIC) by CE drop plate method; assay type: cell-based, A. baumannii; conditions: Pep_V2QV5D combined with colistin
Procedure: Synergy studies were conducted using the above described CE drop plate method, however two peptides were mixed in a series of concentration combinations using PBNS as a diluent before bacterial inoculation and subsequent incubation. The highest concentration combination tested was the individual CE concentrations of Pep_V2QV5D and colistin, which were 12 µg/mL and 8 µg/mL, respectively. The amounts of each compound were then reduced sequentially in various proportions until the lowest possible active combination was identified.
Traditionally, the FIC in a drug mixture is defined as the sum of the FICs (ΣFIC) and is calculated with the equation; ΣFIC = FICA + FICB = (CEcombA/CEA) + (CEcombB/CEB) [formula]
Where CEA and CEB are the killing concentrations of individual peptides A and B, respectively, and CEcombA and CEcombB are the killing concentrations of the peptides in combination. In this work we used a similar concept and analysed the ratios of FICA and FICB. 'Synergy' was interpreted as a FIC ≤ 0.5, 'antagonism' as FIC > 4.0 and 'no interaction' as FIC > 0.5-4.0 [40].

[3] = system: colRAB; assay: Complete Elimination (CE) Drop Plate method; assay type: cell-based, A. baumannii; conditions: 90 minutes challenge in PBNS, tested alone
Procedure: (§1) Complete Elimination (CE) Drop Plate method: The CE method was primarily used as the antimicrobial susceptibility testing method for peptides used in this study. This was performed to avoid any interference of cations within the test media or buffer on the bioactivity of the peptides. This assay was performed by the method outlined by Chen et al. (2003) with minor modifications. Briefly, bacteria were grown overnight and sub-cultured to mid exponential phase. PBNS was used to make serial dilutions of bacteria in a 96 well plate. The appropriate volume of peptide was added to the wells at a final volume of 100 µL. As a control, PBNS was added to the bacterial suspensions without any peptide. The microtiter plate was incubated for 90 minutes at 37°C. Post challenge, 10 µL from each well was spotted onto appropriate media, depending on the strain. This was conducted in triplicate. The spots were left to dry, and the plates were incubated inverted. The first concentration to inhibit growth across all bacterial dilutions was determined as the CE concentration. Surviving colonies at sub-CE concentrations were counted after 18 hours incubation at 37°C. The reduction in colony forming units (CFU) was assessed relative to the untreated control and the log reduction induced by peptide treatment was calculated. All antimicrobial activity assays were performed in triplicate and on independent days.

[4] = system: colSAB; assay: Complete Elimination (CE) Drop Plate method; assay type: cell-based, A. baumannii; conditions: 90 minutes challenge in PBNS
Procedure: as §1

[5] = system: A. baumannii; assay: In vitro resistance study (14 sequential passages at sub-inhibitory concentrations); assay type: cell-based; conditions: repeated exposure to sub-inhibitory concentrations
Procedure: In vitro resistance study: This assay was conducted as outlined by Ge et al. 1999 with some modifications. Briefly, the in vitro passage study involved exposing bacteria diluted to […] in PBNS to Pep_V2QV5D at one-half of the previously established bactericidal concentration. After 90 minutes of incubation at 37°C, 10 µL was spotted in triplicate on MHB and incubated again overnight. Post-incubation, surviving colonies were collected, diluted in PBNS and adjusted to […] before repeated treatment with the sub-killing concentration of Pep_V2QV5D. The CE concentration was determined prior to the initiation of the study, after the 4th, 7th, 11th and 14th passages. If the CE concentration after the fourth passage was greater than the original killing concentration, then for passes 5, 6, and 7, the amount of peptide used during the bacterial challenge was increased to one-half of that new CE concentration. This was continued over a 14-day course. Magainin and colistin were used as controls for the in vitro resistance study. This assay was performed in independent duplicates.

[6] = in humans; cited from earlier work

## GIGKFLHSAKKFGKAFVGEIMNS [magainin 2]
[1]; 50 µg/mL, 24 hours, MTT
  decrease in viability: 22%

## VRGLAPKKSLWPFGGPFKSPFN [Pep_V2QV5D]
[1]
  toxic concentration compared to the concentration required for antimicrobial action (therapeutic index): over 40 times

## colistin
[1]
  toxic concentration compared to the concentration required for antimicrobial action (therapeutic index): 6.8 times
[2]
  CE concentration in combination: 1 µg/mL
[3]
  Complete Elimination values (CE concentration): 8 µg/mL
[3]; listed as Colistin
  Complete Elimination values (CE concentration): 8 ^(R) µg/mL
[4]
  Complete Elimination values (CE concentration): 0.25 µg/mL
[5]
  fold change in the CE concentration over 14 days: 16 fold

## vasopressin
[6]
  half-life: 10 to 35 min
